Drawing on PubChem BioAssay AID832 (PCMD, 2007), this text covers IC50 for three molecules.

SMILES strings stand for the structures. Results filed as inconclusive are left out. Active and inactive are the calls of the source. How the calls were made is not given here.

Usually IC50 stands for the concentration at which inhibition is half-maximal.

In this experiment the target is Cathepsin G (Homo sapiens) (UniProt P08311). The experiment in a line: IC50 of CTSG protease blockers – biochemical, confirmation, dose response (AID 832). The note with it: purified cathepsin G enzyme activity, signal read-out.
Sequence of Cathepsin G (Homo sapiens) (P08311 21-244 limits assumed): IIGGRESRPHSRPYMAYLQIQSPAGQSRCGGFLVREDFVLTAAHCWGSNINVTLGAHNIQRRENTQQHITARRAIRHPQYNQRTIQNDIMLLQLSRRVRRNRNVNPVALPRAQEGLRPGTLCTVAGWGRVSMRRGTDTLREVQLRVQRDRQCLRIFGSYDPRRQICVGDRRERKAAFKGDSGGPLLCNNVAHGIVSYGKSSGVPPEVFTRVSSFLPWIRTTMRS
In the case of `O=C1CCCC(O)=C1C=NCCc1ccccc1`, the IC50 is > 50 µM (inactive).
The result for `COC(=O)c1sc(N2C(=O)C(O)=C(C(=O)c3ccc(C)o3)C2c2ccc(F)cc2)nc1C` (stereo not drawn) reads > 50 µM (inactive); that for `COc1ccc(C2C(C(=O)c3cccs3)=C(O)C(=O)N2c2nncs2)cc1` (stereo not drawn), > 50 µM (inactive).
